Results on 17 compounds are retold here after ChEMBL document CHEMBL1201862, “PubChem BioAssay data set” (2004).

Active and inactive are the calls of the source.

One assay deals with T1, Caspase-3 (Homo sapiens, UniProt P42574).
T1 sequence (P42574 whole entry): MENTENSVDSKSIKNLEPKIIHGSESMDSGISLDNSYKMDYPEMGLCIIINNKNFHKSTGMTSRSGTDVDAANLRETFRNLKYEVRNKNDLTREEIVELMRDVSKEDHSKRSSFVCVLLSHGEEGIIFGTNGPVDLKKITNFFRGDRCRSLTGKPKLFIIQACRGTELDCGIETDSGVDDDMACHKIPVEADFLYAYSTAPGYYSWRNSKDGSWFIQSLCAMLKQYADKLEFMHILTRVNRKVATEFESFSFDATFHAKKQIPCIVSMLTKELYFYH
The assay is classed as functional.

In assay [1] the target is T2, Sentrin-specific protease 7 (Homo sapiens, UniProt Q9BQF6).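 Also: Luminescence-based dose-response confirmation of ultra-high-throughput screening hits, measuring inhibition of SENP7.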
T2 sequence (Q9BQF6 whole entry): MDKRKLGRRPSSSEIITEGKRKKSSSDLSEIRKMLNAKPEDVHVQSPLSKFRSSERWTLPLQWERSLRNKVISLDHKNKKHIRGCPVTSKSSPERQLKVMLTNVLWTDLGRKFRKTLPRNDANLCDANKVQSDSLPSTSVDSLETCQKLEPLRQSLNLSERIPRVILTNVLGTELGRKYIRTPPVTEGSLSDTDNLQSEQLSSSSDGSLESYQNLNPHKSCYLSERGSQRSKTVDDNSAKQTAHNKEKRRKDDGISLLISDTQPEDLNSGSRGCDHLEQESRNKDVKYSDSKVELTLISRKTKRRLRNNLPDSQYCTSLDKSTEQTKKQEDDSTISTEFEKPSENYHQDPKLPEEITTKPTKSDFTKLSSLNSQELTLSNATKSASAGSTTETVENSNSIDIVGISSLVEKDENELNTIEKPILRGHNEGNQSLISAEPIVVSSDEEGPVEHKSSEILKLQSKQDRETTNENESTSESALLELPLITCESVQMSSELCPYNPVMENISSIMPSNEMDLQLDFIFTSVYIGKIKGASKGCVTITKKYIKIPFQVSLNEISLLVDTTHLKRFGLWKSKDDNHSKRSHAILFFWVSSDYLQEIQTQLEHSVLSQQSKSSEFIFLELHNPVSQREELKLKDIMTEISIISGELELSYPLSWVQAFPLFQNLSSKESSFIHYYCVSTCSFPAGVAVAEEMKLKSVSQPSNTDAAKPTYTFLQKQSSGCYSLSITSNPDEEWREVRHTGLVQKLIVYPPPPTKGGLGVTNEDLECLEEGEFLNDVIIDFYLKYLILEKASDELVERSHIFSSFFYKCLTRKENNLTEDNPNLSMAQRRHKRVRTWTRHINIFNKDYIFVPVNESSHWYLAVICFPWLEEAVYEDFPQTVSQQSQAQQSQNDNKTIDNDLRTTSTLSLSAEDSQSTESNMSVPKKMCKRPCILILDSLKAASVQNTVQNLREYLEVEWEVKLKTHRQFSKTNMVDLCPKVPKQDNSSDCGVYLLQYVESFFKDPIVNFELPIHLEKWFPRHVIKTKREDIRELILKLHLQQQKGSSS
The format is functional.

Assay [2] has as its target T3, Sentrin-specific protease 6 (Homo sapiens, UniProt Q9GZR1).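 Also: Luminescence-based dose-response confirmatory assay of SENP6 inhibition, following up an ultra-high-throughput screen.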
T3 sequence (Q9GZR1 whole entry): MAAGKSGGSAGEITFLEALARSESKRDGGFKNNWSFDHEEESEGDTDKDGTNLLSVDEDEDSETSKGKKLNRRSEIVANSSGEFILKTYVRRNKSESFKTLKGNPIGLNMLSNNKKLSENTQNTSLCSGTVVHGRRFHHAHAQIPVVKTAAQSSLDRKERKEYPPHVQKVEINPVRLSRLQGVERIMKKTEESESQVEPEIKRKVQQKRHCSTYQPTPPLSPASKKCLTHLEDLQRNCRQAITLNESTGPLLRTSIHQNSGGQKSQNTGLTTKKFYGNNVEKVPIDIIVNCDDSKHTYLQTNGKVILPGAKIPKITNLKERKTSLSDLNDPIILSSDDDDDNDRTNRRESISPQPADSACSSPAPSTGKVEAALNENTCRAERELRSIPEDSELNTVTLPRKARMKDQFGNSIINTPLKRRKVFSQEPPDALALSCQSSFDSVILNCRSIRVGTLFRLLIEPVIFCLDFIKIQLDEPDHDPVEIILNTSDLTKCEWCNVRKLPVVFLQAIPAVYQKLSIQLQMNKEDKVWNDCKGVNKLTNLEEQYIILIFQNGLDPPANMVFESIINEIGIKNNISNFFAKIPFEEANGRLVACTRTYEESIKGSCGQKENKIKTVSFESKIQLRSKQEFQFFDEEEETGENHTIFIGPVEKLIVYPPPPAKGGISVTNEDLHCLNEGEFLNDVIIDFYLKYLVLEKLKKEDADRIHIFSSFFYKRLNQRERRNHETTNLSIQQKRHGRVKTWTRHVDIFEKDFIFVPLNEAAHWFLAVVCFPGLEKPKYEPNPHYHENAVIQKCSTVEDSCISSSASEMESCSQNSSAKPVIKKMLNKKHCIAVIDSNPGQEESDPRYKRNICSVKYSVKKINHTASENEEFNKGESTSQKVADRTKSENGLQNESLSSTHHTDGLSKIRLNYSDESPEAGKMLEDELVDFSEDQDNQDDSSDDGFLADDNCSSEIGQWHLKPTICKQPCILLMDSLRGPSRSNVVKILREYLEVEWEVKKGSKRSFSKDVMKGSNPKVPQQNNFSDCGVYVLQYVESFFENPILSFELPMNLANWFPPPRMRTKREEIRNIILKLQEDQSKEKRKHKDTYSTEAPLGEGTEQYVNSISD
The assay is classed as functional.

The target of assay [3] is T4, Sentrin-specific protease 8 (Homo sapiens, UniProt Q96LD8).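 Also: luminescence read-out of SENP8 inhibition, dose-response confirmation following an ultra-high-throughput screen.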
T4 sequence (Q96LD8 whole entry): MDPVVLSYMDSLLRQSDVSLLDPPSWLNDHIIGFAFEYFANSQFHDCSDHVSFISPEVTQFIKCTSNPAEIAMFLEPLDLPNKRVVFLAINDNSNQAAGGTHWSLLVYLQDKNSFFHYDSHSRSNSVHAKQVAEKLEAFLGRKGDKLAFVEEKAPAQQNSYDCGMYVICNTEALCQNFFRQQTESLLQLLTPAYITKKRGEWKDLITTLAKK
The assay is classed as functional.

Assay [4] deals with T5, Fructose-bisphosphate aldolase (Mycobacterium tuberculosis, UniProt P9WQA3).
T5 sequence (P9WQA3 whole entry): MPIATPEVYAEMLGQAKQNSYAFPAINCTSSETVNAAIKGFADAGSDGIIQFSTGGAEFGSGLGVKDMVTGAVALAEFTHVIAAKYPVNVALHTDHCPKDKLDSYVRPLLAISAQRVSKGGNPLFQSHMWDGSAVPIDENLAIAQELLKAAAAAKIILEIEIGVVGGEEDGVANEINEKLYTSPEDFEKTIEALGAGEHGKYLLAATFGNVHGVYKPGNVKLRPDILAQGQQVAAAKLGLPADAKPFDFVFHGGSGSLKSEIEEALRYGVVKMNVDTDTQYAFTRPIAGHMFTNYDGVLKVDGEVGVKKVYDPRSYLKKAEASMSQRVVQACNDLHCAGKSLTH
As to the kind of experiment: Fluorescence-based biochemical high throughput dose response assay for inhibitors of the fructose-bisphosphate aldolase (FBA) of M. tuberculosis. The assay is classed as functional.

For another assay, the target named is Paired box protein Pax-8 (Homo sapiens, UniProt Q06710). Briefly: inhibitors of PAX8-driven TPO luciferase reporter, dose response, RMG-I cells, cherry-pick (AID 687027).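 Also: luciferase reporter driven by Pax8 target thyroperoxidase promoter measured by SteadyGlo luminescence.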 The format is functional, cell-based. (In general: In a reporter assay the amount or activity of a reporter protein is the signal.)
A short description of assay [5]: ADAM10 inhibitors, peptide cleavage, dose response, biochemical, QFRET (AID 743254).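 Also: ADAM10 enzyme with the DM2 quenched FRET peptide as substrate; EDANS fluorescence gain as the protease cuts the substrate; inhibitor potency against ADAM10 proteolytic activity.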
For assay [6], the target named is T6, Disintegrin and metalloproteinase domain-containing protein 17 (Homo sapiens, UniProt P78536). Briefly: ADAM17 protease inhibitors, dose response, counter-screen for ADAM10 exosite inhibitor project, biochemical, quenched FRET substrate (AID 743253). For orientation: The purpose of a counterscreen is to sort out artefacts and off-target activity.
The target of another assay is T7, Protein skinhead-1 (Caenorhabditis elegans, UniProt P34707).
T7 sequence (P34707 whole entry): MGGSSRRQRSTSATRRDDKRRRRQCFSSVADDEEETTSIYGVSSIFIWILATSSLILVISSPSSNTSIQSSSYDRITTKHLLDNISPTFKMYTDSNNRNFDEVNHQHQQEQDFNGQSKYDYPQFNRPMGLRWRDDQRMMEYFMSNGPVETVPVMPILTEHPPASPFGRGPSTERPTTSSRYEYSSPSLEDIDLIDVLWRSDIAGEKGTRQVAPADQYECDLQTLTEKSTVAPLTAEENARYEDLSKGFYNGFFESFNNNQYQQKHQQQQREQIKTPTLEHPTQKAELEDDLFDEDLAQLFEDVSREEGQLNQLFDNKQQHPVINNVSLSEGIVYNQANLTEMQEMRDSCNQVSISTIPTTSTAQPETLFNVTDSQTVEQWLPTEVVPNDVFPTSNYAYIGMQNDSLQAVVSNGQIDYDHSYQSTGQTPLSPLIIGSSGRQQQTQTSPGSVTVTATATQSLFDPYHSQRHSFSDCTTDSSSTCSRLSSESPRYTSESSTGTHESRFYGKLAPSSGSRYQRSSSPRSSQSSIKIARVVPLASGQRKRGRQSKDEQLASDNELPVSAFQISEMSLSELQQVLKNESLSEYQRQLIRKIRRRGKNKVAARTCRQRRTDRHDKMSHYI
The format is functional.

The target in the next assay is Prothrombin (Homo sapiens, UniProt P00734). Briefly: Thrombin 1536 HTS Dose Response Confirmation. [Related pubchem assays: 1046 (Thrombin 1536 HTS; hits were confirmed in this assay)]. The assay is classed as functional.
Assay [7] is described as follows: inhibitors of intracellular T. cruzi replication, confirmation, NIH3T3 host cells, beta-gal luminescence (AID 2044).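 Also: intracellular parasites grown in NIH/3T3 mouse fibroblasts as host cells; luminescent beta-galactosidase reporter signal from transgenic T. cruzi replicating inside host cells; inhibitors lower the luminescence signal.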 The format is functional, cell-based.
Assay [8] can be described thus: cytotoxicity toward NIH3T3 fibroblasts, dose response, counter-screen, cell-based, ATP luminescence, mouse fibroblasts (AID 2010).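 Also: cells exposed to compound for about 90 hours before reading.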 The assay is classed as functional.
Assay [9] deals with T6, Disintegrin and metalloproteinase domain-containing protein 17. As to the kind of experiment: exosite inhibitors of ADAM17, dose response, biochemical (AID 743260).
Assay [10] can be described thus: ADAM10 protease inhibitors, dose response, selectivity assay for ADAM17 exosite inhibitor project, biochemical, FRET peptide substrate, recombinant human ADAM10 (AID 743259).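 Also: ADAM10 enzyme cleaving a FRET peptide substrate.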
For assay [11], the target named is Luciferin 4-monooxygenase (Photinus pyralis, UniProt P08659). Briefly: Counter Screen for Luciferase-based Assay Positives. [Related pubchem assays: 620, 618, 411 ].
A further assay concerns HT-1080. As to the kind of experiment: cytotoxicity in HT1080 fibrosarcoma cells, cell-based, fluorescence readout (AID 620). The format is functional. The note with it: Homo sapiens.
Assay [12] is described as follows: HEK293T cytotoxicity, dose response, cytotoxicity control for miR-122 modulator project, cell-based, inhibitor set, cherry-pick, set 2 (AID 720697). The format is functional.
A short description of assay [13]: non-specific cell cytotoxicity, dose response, cytotoxicity control for PAX8 inhibitor project, plate reader, dry powder samples (AID 743021). The format is functional, cell-based.

T6 sequence (P78536 whole entry, the tested form may be a part): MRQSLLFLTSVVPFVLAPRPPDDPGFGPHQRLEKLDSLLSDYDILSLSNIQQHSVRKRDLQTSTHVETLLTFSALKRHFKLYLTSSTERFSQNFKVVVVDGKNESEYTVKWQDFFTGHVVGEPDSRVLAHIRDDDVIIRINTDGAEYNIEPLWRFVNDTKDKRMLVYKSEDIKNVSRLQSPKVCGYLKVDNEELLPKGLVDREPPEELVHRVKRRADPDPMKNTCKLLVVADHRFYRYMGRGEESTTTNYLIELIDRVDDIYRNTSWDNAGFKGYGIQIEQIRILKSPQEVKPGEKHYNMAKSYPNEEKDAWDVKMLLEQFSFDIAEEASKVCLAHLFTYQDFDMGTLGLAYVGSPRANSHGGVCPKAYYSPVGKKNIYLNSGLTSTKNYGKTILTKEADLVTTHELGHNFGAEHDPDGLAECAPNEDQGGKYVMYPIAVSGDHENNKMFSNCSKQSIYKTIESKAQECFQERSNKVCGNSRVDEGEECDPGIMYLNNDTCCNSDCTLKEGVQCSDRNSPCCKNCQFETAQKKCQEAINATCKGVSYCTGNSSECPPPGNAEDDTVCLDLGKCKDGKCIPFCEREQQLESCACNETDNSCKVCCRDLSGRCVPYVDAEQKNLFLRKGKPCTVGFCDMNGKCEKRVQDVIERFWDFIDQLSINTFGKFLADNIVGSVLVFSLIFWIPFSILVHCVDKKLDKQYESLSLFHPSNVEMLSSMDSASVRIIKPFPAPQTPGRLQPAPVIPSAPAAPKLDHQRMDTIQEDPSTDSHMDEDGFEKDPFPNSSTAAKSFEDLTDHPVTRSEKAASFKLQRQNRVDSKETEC
Paired box protein Pax-8, sequence (Q06710 whole entry): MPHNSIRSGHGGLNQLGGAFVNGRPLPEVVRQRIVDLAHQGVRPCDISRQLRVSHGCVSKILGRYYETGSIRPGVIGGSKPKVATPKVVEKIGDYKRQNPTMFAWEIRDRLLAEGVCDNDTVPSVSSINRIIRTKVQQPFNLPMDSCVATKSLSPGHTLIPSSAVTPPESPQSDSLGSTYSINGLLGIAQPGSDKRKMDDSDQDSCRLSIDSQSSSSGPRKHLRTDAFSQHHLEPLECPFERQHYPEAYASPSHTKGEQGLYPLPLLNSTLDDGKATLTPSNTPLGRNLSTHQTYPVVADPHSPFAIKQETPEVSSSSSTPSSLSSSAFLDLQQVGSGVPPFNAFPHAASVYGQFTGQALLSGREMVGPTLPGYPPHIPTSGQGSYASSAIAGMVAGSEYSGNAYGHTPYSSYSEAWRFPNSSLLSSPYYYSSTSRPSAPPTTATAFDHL
Luciferin 4-monooxygenase, sequence (P08659 whole entry): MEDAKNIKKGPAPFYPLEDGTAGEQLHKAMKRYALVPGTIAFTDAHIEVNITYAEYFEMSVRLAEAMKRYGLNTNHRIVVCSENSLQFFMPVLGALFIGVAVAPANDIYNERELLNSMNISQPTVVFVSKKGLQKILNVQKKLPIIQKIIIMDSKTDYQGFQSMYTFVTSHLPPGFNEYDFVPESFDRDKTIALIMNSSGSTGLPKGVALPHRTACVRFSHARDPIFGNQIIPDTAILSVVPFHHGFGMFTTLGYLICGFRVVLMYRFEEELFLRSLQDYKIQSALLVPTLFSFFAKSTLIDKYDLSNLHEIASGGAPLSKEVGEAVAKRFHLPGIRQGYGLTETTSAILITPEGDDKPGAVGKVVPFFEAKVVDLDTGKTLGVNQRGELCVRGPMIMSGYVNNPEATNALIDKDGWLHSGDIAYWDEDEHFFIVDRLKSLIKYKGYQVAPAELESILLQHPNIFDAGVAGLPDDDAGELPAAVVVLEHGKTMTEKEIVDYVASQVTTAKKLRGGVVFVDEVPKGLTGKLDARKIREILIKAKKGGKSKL

As for `CC(=O)N1C(=O)/C(=C2\SC(=S)N(NC(=O)c3ccc(O)cc3)C2=O)c2ccccc21`, the IC50 (usually the concentration that inhibits the measured activity by half) at Caspase-3 was 12.9 µM (active); in assay [1], 35.3 µM (active); in assay [2], 3.1 µM (active); in assay [3], 10.3 µM (active); in assay [4], 4.74 µM (active).
Take `CCOc1ccc(CCN2C(=S)N([C@@H](Cc3ccc(O)cc3)CN3CCC[C@@H]3CN3C(=S)NC[C@@H]3CC(C)C)C[C@@H]2Cc2ccc(O)cc2)cc1`: the AC50 (in general, the midpoint of the concentration-response curve, whichever way the signal moves) at Paired box protein Pax-8 is 8.84 µM (active). Also, the IC50 in [5] is 12.4 µM (inactive); in assay [6], > 69.5 µM (inactive).
As for `CC(C)(C)OC(=O)NCc1ccc(CNC(=O)c2nc[nH]c2C(=O)N[C@@H](Cc2ccccc2)C(=O)OC(C)(C)C)cc1`, the IC50 in assay [6] is > 69.5 µM (inactive).
In the case of `CC(C)CC(C(=O)Oc1ccc2c3c(c(=O)oc2c1)CCC3)N1C(=O)c2ccccc2C1=O` (stereo not drawn), the results for the IC50 (at Protein skinhead-1; in [4]) were > 100 µM (inactive) and 1.27 µM (active), respectively.
With `COc1ccc(C2C(=O)c3ccccc3C2=O)cc1OC`, on Prothrombin, the IC50 was > 50 µM (not active).
For `O=c1oc(-c2ccccc2[N+](=O)[O-])nc2ccccc12`, the IC50 on Prothrombin is 0.116 µM (active).
For `COc1ccc(NC(=S)Nc2ccc3cn[nH]c3c2)cc1`, on Prothrombin, the IC50 was 5.6 µM (active).
With `CCCCN(C)CCNC(=O)c1nn(-c2ccc(OC)cc2)c(=O)c2c1c1ccccc1n2C`, the EC50 (commonly the concentration giving half of the maximal effect) is < 100 nM (active) in assay [7], > 60 µM (not active) in assay [8] and 440 nM (active) in “cells”.
On to `Cc1cccc(Nc2nnc(SCC(=O)c3ccc(Br)s3)s2)c1C`, for which the IC50 in assay [9] and in assay [10] was > 69.5 µM (inactive) in each case.
With `COc1nc(C)ccc1-c1noc(-c2ccco2)n1`, the EC50 in assay [11] was 1.78 µM (active); in the assay on HT-1080, > 50 µM (not active).
As for `CCc1nc2sc(C)c(C)c2c(=O)n1CCO`, the AC50 in assay [12] was 8.36 µM (active).
With `Cc1sc2nc(SCC(=O)c3ccc(O)c(O)c3)n(Cc3ccco3)c(=O)c2c1C`, the IC50 in [9] and in assay [10] was > 69.5 µM (inactive) throughout.
Take `Cc1ccccc1CN(c1ccc(C(=O)Nc2ccccc2C(=O)NCc2ccco2)cc1)S(C)(=O)=O`: the IC50 in assay [5] and in assay [6] was > 69.5 µM (inactive) in each case.
As to `COCC(=O)N(C)C[C@@H]1[C@H](c2ccc(-c3ccccc3)cc2)[C@@H](CO)N1C(C)=O`, the AC50 in assay [12] is 9.74 µM (active).
For `CC(C)N(CCn1c(SCC(=O)N2CC(=O)Nc3ccccc32)nc2ccccc2c1=O)C(C)C`, the figures for the EC50 (in [7]; in assay [8]; in “cells”) were < 100 nM (active), > 60 µM (not active) and 61 nM (active), respectively.
For `COC(=O)C1=C(C)N(Cc2cccc(C(F)(F)F)c2)C(NCC2CC2)=NC1c1cccc(C(F)(F)F)c1` (stereo not drawn), the AC50 on Paired box protein Pax-8 is 17.2 µM (active); in assay [13], 20.8 µM (active).
With `CC(C)(C)OC(=O)NCc1ccc(CNC(=O)c2[nH]cnc2C(=O)N[C@@H](Cc2ccccc2)C(=O)OC(C)(C)C)cc1`, in assay [5], the IC50 is 9.77 µM (active).
